ChEMBL document CHEMBL3991601, “The target landscape of clinical kinase drugs” (Science, 2017)
Activity calls are given as the source filed them. Rule as the data show it, for most assays here: actives have a measured Kd and inactives only a lower limit.

How the values were obtained:
[1] = biological target: T1, Probable ATP-dependent RNA helicase DDX6 (Homo sapiens, UniProt P26196)
T1 sequence (P26196 whole entry): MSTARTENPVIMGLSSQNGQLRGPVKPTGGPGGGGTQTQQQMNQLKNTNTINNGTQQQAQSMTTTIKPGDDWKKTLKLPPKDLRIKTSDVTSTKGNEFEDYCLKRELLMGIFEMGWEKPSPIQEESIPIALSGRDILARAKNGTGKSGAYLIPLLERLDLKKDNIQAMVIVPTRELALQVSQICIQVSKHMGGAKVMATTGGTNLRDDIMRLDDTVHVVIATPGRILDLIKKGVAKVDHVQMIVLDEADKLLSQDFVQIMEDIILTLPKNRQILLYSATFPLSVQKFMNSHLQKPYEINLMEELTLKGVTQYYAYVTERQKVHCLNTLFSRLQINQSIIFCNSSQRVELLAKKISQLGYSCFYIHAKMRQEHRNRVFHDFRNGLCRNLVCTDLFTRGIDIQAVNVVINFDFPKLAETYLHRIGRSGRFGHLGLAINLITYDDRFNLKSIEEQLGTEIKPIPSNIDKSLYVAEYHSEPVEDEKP

Myosin-14 = Myosin-14 (Homo sapiens, UniProt Q7Z406)
Sequence of Myosin-14 (Q7Z406 whole entry): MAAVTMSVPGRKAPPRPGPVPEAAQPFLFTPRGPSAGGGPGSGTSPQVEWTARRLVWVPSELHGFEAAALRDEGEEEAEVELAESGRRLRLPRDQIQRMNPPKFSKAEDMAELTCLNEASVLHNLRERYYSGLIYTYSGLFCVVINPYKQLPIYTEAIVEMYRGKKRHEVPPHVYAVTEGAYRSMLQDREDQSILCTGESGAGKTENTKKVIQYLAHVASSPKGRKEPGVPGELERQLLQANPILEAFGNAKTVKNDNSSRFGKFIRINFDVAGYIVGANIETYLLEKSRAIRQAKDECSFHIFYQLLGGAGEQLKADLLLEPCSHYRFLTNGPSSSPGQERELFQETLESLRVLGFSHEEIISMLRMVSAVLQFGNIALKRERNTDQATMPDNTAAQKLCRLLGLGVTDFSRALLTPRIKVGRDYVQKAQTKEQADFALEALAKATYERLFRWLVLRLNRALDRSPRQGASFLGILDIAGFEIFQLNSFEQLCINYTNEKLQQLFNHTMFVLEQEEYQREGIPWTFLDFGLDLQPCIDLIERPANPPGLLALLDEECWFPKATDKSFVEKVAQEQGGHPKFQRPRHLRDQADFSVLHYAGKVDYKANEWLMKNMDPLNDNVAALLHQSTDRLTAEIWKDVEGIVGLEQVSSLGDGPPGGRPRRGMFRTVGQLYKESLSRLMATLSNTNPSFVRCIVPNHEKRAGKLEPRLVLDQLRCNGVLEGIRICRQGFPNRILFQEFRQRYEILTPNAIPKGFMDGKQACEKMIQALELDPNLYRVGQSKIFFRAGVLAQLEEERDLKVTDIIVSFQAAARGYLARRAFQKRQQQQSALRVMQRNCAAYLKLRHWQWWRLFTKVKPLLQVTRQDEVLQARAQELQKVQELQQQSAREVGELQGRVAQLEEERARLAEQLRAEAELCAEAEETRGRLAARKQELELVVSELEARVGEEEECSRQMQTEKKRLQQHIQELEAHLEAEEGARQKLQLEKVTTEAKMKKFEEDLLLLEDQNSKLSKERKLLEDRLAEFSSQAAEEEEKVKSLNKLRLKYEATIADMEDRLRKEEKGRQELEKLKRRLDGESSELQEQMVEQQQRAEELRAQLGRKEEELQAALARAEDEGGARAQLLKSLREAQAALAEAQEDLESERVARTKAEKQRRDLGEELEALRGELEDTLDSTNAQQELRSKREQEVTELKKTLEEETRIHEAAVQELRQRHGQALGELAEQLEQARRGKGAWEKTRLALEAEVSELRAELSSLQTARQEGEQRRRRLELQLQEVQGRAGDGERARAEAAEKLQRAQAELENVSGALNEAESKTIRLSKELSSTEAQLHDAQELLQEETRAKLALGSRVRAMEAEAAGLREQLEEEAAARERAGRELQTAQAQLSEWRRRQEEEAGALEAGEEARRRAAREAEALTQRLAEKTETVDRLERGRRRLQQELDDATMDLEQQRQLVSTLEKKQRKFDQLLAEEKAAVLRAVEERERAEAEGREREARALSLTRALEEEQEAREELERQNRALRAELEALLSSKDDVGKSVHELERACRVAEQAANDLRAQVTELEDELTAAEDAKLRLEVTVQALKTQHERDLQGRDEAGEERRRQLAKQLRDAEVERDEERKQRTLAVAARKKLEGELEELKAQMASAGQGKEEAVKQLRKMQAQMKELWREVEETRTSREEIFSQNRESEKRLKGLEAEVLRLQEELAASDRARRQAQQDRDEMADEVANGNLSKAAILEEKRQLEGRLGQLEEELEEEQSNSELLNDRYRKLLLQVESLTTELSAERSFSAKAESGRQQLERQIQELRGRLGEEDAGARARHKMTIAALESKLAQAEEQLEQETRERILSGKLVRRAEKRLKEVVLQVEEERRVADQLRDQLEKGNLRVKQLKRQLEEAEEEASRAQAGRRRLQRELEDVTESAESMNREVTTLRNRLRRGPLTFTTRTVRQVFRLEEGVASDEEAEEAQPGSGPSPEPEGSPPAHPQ

[2] = biological target: T2, Non-receptor tyrosine-protein kinase TNK1 (Homo sapiens, UniProt Q13470)
T2 sequence (Q13470 whole entry): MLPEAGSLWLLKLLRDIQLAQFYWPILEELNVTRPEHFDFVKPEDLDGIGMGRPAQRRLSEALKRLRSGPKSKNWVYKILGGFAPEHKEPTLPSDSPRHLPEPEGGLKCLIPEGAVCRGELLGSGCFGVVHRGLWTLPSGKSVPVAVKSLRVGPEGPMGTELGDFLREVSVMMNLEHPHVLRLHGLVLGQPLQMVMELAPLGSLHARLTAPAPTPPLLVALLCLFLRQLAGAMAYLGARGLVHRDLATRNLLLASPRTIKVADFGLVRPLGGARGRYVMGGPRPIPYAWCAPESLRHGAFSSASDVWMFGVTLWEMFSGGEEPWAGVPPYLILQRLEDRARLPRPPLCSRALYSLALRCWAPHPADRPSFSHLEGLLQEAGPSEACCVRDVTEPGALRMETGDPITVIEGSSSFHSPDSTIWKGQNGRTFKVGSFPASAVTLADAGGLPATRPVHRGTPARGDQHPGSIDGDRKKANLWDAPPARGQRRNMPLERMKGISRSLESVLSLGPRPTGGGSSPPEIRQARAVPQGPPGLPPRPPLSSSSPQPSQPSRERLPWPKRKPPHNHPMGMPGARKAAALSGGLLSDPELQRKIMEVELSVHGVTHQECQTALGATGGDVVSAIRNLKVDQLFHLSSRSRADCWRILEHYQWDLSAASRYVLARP

[3] = biological target: Serine/threonine-protein kinase 26 (Homo sapiens, UniProt Q9P289)
Sequence of Serine/threonine-protein kinase 26 (Q9P289 whole entry): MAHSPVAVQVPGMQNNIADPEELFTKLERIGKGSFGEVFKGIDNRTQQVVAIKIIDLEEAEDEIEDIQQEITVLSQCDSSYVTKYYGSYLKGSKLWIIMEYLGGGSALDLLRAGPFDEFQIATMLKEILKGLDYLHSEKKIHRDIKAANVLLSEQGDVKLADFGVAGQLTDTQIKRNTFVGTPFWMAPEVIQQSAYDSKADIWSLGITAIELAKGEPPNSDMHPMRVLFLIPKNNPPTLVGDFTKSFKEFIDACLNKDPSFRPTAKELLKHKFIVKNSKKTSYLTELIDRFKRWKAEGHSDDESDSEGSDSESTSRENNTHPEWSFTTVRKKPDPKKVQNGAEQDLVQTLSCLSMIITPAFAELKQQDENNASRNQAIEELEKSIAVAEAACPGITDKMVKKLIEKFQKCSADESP

[4] = biological target: Cyclin-dependent kinase 6 (Homo sapiens, UniProt Q00534)
Sequence of Cyclin-dependent kinase 6 (Q00534 whole entry): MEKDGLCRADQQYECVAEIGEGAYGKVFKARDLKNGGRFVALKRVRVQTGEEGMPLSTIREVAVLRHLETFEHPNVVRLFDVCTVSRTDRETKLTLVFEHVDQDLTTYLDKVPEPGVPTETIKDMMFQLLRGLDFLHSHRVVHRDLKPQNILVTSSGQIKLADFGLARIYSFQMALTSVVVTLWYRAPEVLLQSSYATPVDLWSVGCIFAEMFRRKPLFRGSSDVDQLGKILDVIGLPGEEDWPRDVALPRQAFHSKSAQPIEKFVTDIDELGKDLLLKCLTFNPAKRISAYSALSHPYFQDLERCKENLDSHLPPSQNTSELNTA

[5] = biological target: Dual specificity protein kinase CLK1 (Homo sapiens, UniProt P49759)
Sequence of Dual specificity protein kinase CLK1 (P49759 whole entry): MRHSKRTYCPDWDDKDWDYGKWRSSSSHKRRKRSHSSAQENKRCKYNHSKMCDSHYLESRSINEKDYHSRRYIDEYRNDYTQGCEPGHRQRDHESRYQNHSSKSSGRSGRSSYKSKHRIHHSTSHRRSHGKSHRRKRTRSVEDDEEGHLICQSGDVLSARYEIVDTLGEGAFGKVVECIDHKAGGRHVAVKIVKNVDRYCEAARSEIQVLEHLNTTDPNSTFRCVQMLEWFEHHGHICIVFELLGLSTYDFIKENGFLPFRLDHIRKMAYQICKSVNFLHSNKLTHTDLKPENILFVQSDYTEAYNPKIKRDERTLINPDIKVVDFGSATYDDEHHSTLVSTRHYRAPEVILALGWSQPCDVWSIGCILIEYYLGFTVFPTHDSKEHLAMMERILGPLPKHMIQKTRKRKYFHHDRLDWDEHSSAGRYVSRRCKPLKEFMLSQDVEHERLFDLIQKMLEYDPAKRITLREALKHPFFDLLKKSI

[6] = biological target: T3, Breakpoint cluster region protein (Homo sapiens, UniProt P11274)
T3 sequence (P11274 whole entry): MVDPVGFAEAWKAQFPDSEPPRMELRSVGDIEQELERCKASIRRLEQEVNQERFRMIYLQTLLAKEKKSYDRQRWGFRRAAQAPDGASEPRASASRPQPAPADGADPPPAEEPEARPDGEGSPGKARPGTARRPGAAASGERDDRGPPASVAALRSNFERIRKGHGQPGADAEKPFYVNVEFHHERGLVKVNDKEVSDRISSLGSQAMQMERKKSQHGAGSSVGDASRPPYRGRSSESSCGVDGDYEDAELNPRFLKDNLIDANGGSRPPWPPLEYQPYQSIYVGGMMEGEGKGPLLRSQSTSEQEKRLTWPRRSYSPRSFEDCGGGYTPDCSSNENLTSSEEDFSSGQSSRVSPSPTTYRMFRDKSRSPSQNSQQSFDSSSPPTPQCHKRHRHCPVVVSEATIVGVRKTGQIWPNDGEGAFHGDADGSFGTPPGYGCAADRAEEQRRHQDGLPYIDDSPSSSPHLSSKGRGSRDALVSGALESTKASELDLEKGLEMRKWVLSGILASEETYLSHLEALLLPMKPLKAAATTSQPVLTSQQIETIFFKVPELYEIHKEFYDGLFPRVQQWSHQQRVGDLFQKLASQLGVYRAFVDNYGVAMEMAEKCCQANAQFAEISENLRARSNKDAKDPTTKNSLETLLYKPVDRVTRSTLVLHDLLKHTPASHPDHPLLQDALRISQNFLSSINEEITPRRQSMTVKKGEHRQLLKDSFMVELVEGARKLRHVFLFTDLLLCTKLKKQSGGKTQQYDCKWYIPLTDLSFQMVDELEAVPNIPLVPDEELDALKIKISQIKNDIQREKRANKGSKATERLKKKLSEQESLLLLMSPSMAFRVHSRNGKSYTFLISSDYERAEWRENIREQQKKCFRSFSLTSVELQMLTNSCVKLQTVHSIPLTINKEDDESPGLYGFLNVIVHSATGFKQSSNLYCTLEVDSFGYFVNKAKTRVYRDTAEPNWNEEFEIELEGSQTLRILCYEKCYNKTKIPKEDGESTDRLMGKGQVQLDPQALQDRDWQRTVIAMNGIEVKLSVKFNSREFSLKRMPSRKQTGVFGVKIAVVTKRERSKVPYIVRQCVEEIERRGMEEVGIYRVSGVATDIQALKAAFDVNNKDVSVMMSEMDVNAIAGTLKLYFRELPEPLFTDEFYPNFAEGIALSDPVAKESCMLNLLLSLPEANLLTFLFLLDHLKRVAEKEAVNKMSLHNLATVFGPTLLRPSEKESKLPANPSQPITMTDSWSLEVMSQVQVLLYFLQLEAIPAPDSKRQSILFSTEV

[7] = biological target: Serine/threonine-protein kinase SIK2 (Homo sapiens, UniProt Q9H0K1)
Sequence of Serine/threonine-protein kinase SIK2 (Q9H0K1 whole entry): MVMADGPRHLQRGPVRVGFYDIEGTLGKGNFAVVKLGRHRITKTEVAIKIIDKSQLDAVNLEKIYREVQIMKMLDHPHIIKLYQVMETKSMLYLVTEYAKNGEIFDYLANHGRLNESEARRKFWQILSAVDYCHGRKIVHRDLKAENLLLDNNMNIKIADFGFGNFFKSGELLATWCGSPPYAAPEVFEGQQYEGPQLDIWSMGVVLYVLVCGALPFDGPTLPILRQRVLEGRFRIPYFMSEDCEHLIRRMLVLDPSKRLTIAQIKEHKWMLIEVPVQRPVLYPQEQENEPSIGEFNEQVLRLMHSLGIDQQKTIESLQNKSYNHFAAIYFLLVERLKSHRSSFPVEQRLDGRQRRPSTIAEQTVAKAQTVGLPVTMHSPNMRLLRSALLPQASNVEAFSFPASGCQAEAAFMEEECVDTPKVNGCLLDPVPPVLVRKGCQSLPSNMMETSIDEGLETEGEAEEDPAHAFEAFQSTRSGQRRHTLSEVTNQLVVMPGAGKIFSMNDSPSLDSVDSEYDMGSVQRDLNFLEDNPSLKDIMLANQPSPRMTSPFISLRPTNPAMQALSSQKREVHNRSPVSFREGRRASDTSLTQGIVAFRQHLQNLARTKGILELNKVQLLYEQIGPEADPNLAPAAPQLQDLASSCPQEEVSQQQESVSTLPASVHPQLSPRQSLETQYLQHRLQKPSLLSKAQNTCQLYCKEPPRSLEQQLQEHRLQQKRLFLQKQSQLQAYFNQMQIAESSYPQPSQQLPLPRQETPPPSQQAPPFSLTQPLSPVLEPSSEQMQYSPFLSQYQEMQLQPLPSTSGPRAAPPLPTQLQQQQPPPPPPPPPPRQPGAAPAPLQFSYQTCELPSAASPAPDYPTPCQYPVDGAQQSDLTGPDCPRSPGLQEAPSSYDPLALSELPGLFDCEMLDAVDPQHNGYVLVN
Also: in the data inactive means no Kd found up to 30 µM.

Row | SMILES | Kd [1] | Kd (Myosin-14) | Kd [2] | Kd [3] | Kd [4] | Kd [6] | Kd [7] | Kd [5]
1 | CN(c1ncccc1CNc1nc(Nc2ccc3c(c2)CC(=O)N3)ncc1C(F)(F)F)S(C)(=O)=O [PF-00562271] | > 30 µM (inactive) | > 30 µM (inactive) | > 30 µM (inactive) | 0.012 µM | > 30 µM (inactive) | > 30 µM (inactive) | – | 0.363 µM (active)
2 | NC[C@@](O)(c1ccc(Cl)cc1)c1ccc(-c2cn[nH]c2)cc1 [AT-13148] | > 30 µM (inactive) | > 30 µM (inactive) | > 30 µM (inactive) | > 30 µM (inactive) | > 30 µM (inactive) | > 30 µM (inactive) | > 30 µM (inactive) | –
3 | CNC(=O)c1cc(COc2nnc(Nc3ccc(Cl)cc3)c3ccoc23)ccn1 [TELATINIB] | > 30 µM (inactive) | – | > 30 µM (inactive) | > 30 µM (inactive) | > 30 µM (inactive) | > 30 µM (inactive) | > 30 µM (inactive) | > 30 µM (inactive)
4 | COc1cc2c(Oc3ccc4[nH]c(C)cc4c3F)ncnc2cc1OCCCN1CCCC1 [CEDIRANIB] | > 30 µM (inactive) | > 30 µM (inactive) | – | – | > 30 µM (inactive) | 2.31 µM (active) | – | –
5 | CC1(COc2ccc3c(c2)ncn3-c2ccc3cccc(N4CCC(N)CC4)c3n2)COC1 [CRENOLANIB] | > 30 µM (inactive) | > 30 µM (inactive) | > 30 µM (inactive) | 0.013 µM (active) | > 30 µM (inactive) | > 30 µM (inactive) | – | > 30 µM (inactive)
6 | O[C@H]1CC[C@H](Nc2ncc3nc(Nc4c(F)cc(F)cc4F)n([C@H]4CCOC4)c3n2)CC1 [TANZISERTIB] | > 30 µM (inactive) | – | > 30 µM (inactive) | > 30 µM (inactive) | > 30 µM (inactive) | > 30 µM (inactive) | > 30 µM (inactive) | > 30 µM (inactive)
7 | CNC(=O)c1ccc(Nc2ncc(C(F)(F)F)c(NCc3nccnc3N(C)S(C)(=O)=O)n2)cc1 [DEFACTINIB] | > 30 µM (inactive) | > 30 µM (inactive) | 11.3 µM (active) | > 30 µM (inactive) | – | > 30 µM (inactive) | > 30 µM (inactive) | > 30 µM (inactive)
8 | COc1cc2c(N3CCN(C(=O)Nc4ccc(OC(C)C)cc4)CC3)ncnc2cc1OCCCN1CCCCC1 [TANDUTINIB] | > 30 µM (inactive) | > 30 µM (inactive) | – | – | > 30 µM (inactive) | – | – | –
9 | CN(C)C/C=C/C(=O)Nc1cc2c(Nc3ccc(F)c(Cl)c3)ncnc2cc1O[C@H]1CCOC1 [AFATINIB] | > 30 µM (inactive) | > 30 µM (inactive) | – | – | > 30 µM (inactive) | > 30 µM (inactive) | – | –
10 | CCc1nc(C(N)=O)c(Nc2ccc(N3CCC(N4CCN(C)CC4)CC3)c(OC)c2)nc1NC1CCOCC1 [GILTERITINIB] | > 30 µM (inactive) | > 30 µM (inactive) | 0.039 µM (active) | 1.14 µM (active) | > 30 µM (inactive) | > 30 µM (inactive) | > 30 µM (inactive) | –
11 | FC(F)(F)c1ccc(CNc2ccc(Cc3c[nH]c4ncc(Cl)cc34)cn2)cn1 [PEXIDARTINIB] | > 30 µM (inactive) | – | > 30 µM (inactive) | > 30 µM (inactive) | > 30 µM (inactive) | > 30 µM (inactive) | > 30 µM (inactive) | > 30 µM (inactive)
12 | O=c1[nH]c([C@@H]2CCCN2)nc2c1oc1ccc(Cl)cc12 | > 30 µM (inactive) | > 30 µM (inactive) | > 30 µM (inactive) | > 30 µM (inactive) | > 30 µM (inactive) | > 30 µM (inactive) | > 30 µM (inactive) | –
13 | Cn1cnc2c(F)c(Nc3ccc(Br)cc3Cl)c(C(=O)NOCCO)cc21 [SELUMETINIB] | > 30 µM (inactive) | > 30 µM (inactive) | – | – | > 30 µM (inactive) | > 30 µM (inactive) | – | –
14 | COCCN1CCN(Cc2ccc(-c3n[nH]c4c3C(=O)c3c(NC(=O)NN5CCOCC5)cccc3-4)cc2)CC1 [RGB-286638] | > 30 µM (inactive) | – | > 30 µM (inactive) | 1.05 µM (active) | > 30 µM (inactive) | 1.24 µM (active) | 0.207 µM (active) | 0.002 µM
15 | CC1(C)CNc2cc(NC(=O)c3cccnc3NCc3ccncc3)ccc21 [MOTESANIB] | > 30 µM (inactive) | – | – | – | > 30 µM (inactive) | > 30 µM (inactive) | – | –
16 | C=CCN(/C=C1/C(=O)O[C@H](COC)[C@@]2(C)C1=C(O)C(=O)C1=C2[C@H](OC(C)=O)C[C@]2(C)C(=O)CC[C@@H]12)CC=C [SONOLISIB] | – | – | > 30 µM (inactive) | > 30 µM (inactive) | > 30 µM (inactive) | > 30 µM (inactive) | > 30 µM (inactive) | > 30 µM (inactive)
17 | CCN(CCCOc1ccc2c(Nc3cc(CC(=O)Nc4cccc(F)c4)n[nH]3)ncnc2c1)CCOP(=O)(O)O [BARASERTIB] | > 30 µM (inactive) | > 30 µM (inactive) | > 30 µM (inactive) | > 30 µM (inactive) | > 30 µM (inactive) | > 30 µM (inactive) | – | > 30 µM (inactive)
18 | O=C(O)c1ccc2c(c1)nc(Nc1cccc(Cl)c1)c1ccncc12 [SILMITASERTIB] | > 30 µM (inactive) | > 30 µM (inactive) | > 30 µM (inactive) | 1.71 µM | > 30 µM (inactive) | > 30 µM (inactive) | > 30 µM (inactive) | –

Now from value to molecule, other results behind:

Row | Kd [1] | Kd (Myosin-14) | Kd [2] | Kd [3] | Kd [4] | Kd [6] | Kd [7] | SMILES | Kd [5]
19 | – | > 30 µM (inactive) | > 30 µM (inactive) | > 30 µM (inactive) | > 30 µM (inactive) | > 30 µM (inactive) | 0.048 µM (active) | COc1cccc(Nc2ncnn3ccc(CN4CC[C@@H](N)[C@H](O)C4)c23)c1 [BMS-690514] | > 30 µM (inactive)
20 | > 30 µM (inactive) | – | – | – | > 30 µM (inactive) | > 30 µM (inactive) | – | C[C@@]1(C(=O)Nc2ccc(F)nc2)CCCN1c1nc(Nc2cc(C3CC3)n[nH]2)c2cccn2n1 [BMS-754807] | –
21 | > 30 µM (inactive) | – | > 30 µM (inactive) | > 30 µM (inactive) | > 30 µM (inactive) | > 30 µM (inactive) | > 30 µM (inactive) | CCOc1ccn(-c2ccc(F)cc2)c(=O)c1C(=O)Nc1ccc(Oc2ccnc(N)c2Cl)c(F)c1 [BMS-777607] | –
